Values after ≈ are worked out from the molar mass of the structure shown. Where two headings read alike, the source gives them in different places.
Experiments:
guinea-pig gallbladder = assay: Anti-CCK activity on guinea-pig gallbladders in vitro (contraction by CCK-8); conditions: Cavia porcellus; CCK-8 10 ng/ml; in vitro
Description: ANTI-CCK ACTIVITY ON GUINEA-PIG GALLBLADDERS IN VITRO A longitudinal strip of guinea-pig gallbladder is placed in a bath for isolated organs in Krebs at a temperature of 32° C. and oxygenated continuously with an oxygen-CO2 mixture (95-[…]). The isometric contractions were detected by means of a force transducer and recorded. […] The results obtained are shown in Table 3 which gives the compounds tested and the IC50 values found which were calculated by the method of regression in a test of at least three experiments for each compound studied.

guinea pig gall bladders = assay: Anti-CCK-8 activity on guinea-pig gallbladders in situ (in vivo); conditions: Cavia porcellus, iv; CCK-8 10 ng/kg i.v.; compound i.v.; read-out: ID50, anti-CCK-8 activity in situ
Description: In order to confirm the evidence of the studies in vitro, several of the more interesting compounds were tested in vivo with the use of guinea-pig gallbladders in situ.
The method used was that described by Ljungberg (Svensk. Farm. Tidskr. 69, 351-354, 1964).
Guinea-pigs having a weight of about 400 g anaesthetised with urethane were used; the substances being tested were administered intravenously (i.v.) into the jugular vein.
The responses of the gallbladder to the substances being tested were detected by means of a force transducer and recorded by means of a microdynamometer. 10 ng/kg of CCK 8 were chosen as the optimum contracting dose. The antagonistic compounds tested were administered in increasing doses so as to enable the calculation of an ID50 value, that is the dose (in mg/kg i.v.) having a 50% inhibiting effect against contractions induced by 10 ng/kg i.v. of CCK-8.

digestive tract = assay: Antispastic activity, vegetable carbon test (speed of transit through stomach and intestine) in mice; format: in vivo; conditions: Mus musculus, ip, read-out: A[…] ED50 (dose which reduces the intestinal transit time of the carbon by 50%), intraperitoneally
Source text: The anti-spastic activity which the present compounds exert on the whole of the digestive tract is also considerable. Measured in mice with the vegetable carbon test (speed of transit through the stomach and intestine) this activity is illustrated in the following table: […]

colon of rabbits = assay: Antispastic activity in the colon of rabbits stimulated with CCK-8; format: in vivo, rabbit; set-up: Antispastic activity in colon, EXPERIMENT 1 / Antispastic activity in colon, EXPERIMENT 2: unit not given here; conditions: CCK 100 ng/kg
Description: The abdomen of anaesthetised rabbit is cut open to display the tranverse colon. A small balloon full of water is inserted at an established point and connected to a pressure transducer by means of a polyethylene cannula filled with H2 O.
The optimum sensitivity being fixed in relation to the physiological contractions, the products were administered through the femeral vein. Contractions were induced by the administration of 100 ng/kg of CCK.

[1] = system: pancreatitis in mice induced experimentally by cerulein; assay: Pancreatitis induced by cerulein in mice; format: in vivo; conditions: for ED50: Mus musculus, ip, cerulein, mice
Description: Adult male mice received six injections of cerulein (Takus) (50 mcg/kg) each hour for six hours.
The compound was administered 30 minutes before each administration of cerulein. Nine hours after the beginning of the treatment, the blood was taken from the rectro-orbitory plexus after anaesthesia with ether, the animals were killed and the pancreas removed and weighed.

[2] = system: pancreatitis in rats induced experimentally by taurocholate; assay: Pancreatitis induced by sodium taurocolate in rats; format: in vivo; conditions: for ED50: Rattus norvegicus, ip, taurocholate, rats
Description: The products under examination were administered intraperitoneally (i.p.) 30 minutes before the operation and 3 hours after the operation. Six hours after the laparatomy the blood was removed from the retro-orbitory plexus after anaesthesia with ether, the animals were killed and the pancreas was removed and weighed. The activity of the serum amylase was determined by the method described above.

[3] = Food consumption in rats treated daily by mouth for three weeks; format: in vivo
Description: (§1) The following tables give the average values of the food consumption and the average weight of each group of animals calculated weekly as well as the Student t value calculated between the various groups treated and the group of control animals. […] Each group received the drug (compound 1) in the doses indicated for three weeks daily by mouth. The drug in the form of the sodium salt was dissolved in water and administered in a volume of 10 ml of H2 O/kg while the control group received an equal volume of the solvent alone.

[4] = Body weight of rats treated daily by mouth for three weeks; format: in vivo
Description: as §1

normal pancreatic cells = assay: Action on growth rate of normal pancreas induced by CCK-8 in hamsters; format: in vivo
Source text: (§2) Male hamsters were innoculated in the cheek pouch with a suspension of 1×10^5 tumour cells of a pancreatic adenocarcinoma.
(§3) Fifteen days after this treatment the animals were killed and the normal pancreas and the pancreatic tumours initiated in the cheek pouch were removed and weighed.
(§4) The DNA was extracted and measured by conventional methods.
(§5) The results obtained are given in Table 11 in which they are expressed as average values±S.E.

[5] = system: pancreatic adenocarcinoma; assay: Inhibiting action on rate of growth of a pancreatic adenocarcinoma induced by CCK-8 in hamsters; format: in vivo
Source text: as §2, §3, §4, §5

[6] = in vivo, sc
[7] = Tolerability in parenteral administration; conditions: i.v. sodium salt in water up to 1.5 percent, 10 ml/kg (150 mg/kg)
[8] = compound 1 4 mg/kg + CCK-8 8 mcg/kg

CCCCCN(CCCOC)C(=O)C(CCC(=O)O)NC(=O)c1ccc(Cl)c(Cl)c1 (racemic) [Compound 1]
IC50 (guinea-pig gallbladder): 0.1 µg/mL (≈ 0.217 µM)
ED50 (guinea pig gall bladders): 0.11 mg/kg
ED50 (digestive tract): 12.8 mg/kg
Antispastic activity in colon, EXPERIMENT 1 (colon of rabbits; 0.3 mg/kg i.v.): -20.8
Antispastic activity in colon, EXPERIMENT 2 (colon of rabbits; 0.3 mg/kg i.v.): -34.1
Antispastic activity in colon, EXPERIMENT 1 (colon of rabbits; 1 mg/kg i.v.): -48.9
Antispastic activity in colon, EXPERIMENT 2 (colon of rabbits; 1 mg/kg i.v.): -55.6
Antispastic activity in colon, EXPERIMENT 1 (colon of rabbits; 3 mg/kg i.v.): -100.0
Antispastic activity in colon, EXPERIMENT 2 (colon of rabbits; 3 mg/kg i.v.): -87.8
ED50 (colon of rabbits; Oryctolagus cuniculus, iv): 1.24 mg/kg
AMYLASE IN THE SERUM ([1]; 5 mg/kg ip + cerulein): 29.4 U/ml
INHIBITION OF WEIGHT INCREASE ([1]; 5 mg/kg ip + cerulein): 76.9%
INHIBITION OF WEIGHT INCREASE (pancreas) ([1]; 5 mg/kg ip + cerulein): 42.8%
AMYLASE IN THE SERUM ([1]; 7.5 mg/kg ip + cerulein): 25.6 U/ml
INHIBITION OF WEIGHT INCREASE ([1]; 7.5 mg/kg ip + cerulein): 81.6%
INHIBITION OF WEIGHT INCREASE (pancreas) ([1]; 7.5 mg/kg ip + cerulein): 71.4%
AMYLASE IN THE SERUM ([1]; 10 mg/kg ip + cerulein): 13.2 U/ml
INHIBITION OF WEIGHT INCREASE ([1]; 10 mg/kg ip + cerulein): 97.1%
INHIBITION OF WEIGHT INCREASE (pancreas) ([1]; 10 mg/kg ip + cerulein): 90.5%
ED50 ([1]; read-out: ED50 (inhibition of weight increase)): 4.2 mg/kg
ED50 ([1]; read-out: ED50, inhibition of weight increase of the pancreas): 5.5 mg/kg
AMYLASE IN THE SERUM ([2]; 5 mg/kg i.p. + taurocholate): 10.4 U/ml
INHIBITION OF AMYLASE INCREASE ([2]; 5 mg/kg i.p. + taurocholate): 47.0%
INHIBITION OF WEIGHT INCREASE ([2]; 5 mg/kg i.p. + taurocholate): 46.1%
AMYLASE IN THE SERUM ([2]; 10 mg/kg i.p. + taurocholate): 9.8 U/ml
INHIBITION OF AMYLASE INCREASE ([2]; 10 mg/kg i.p. + taurocholate): 64.7%
INHIBITION OF WEIGHT INCREASE ([2]; 10 mg/kg i.p. + taurocholate): 84.6%
AMYLASE IN THE SERUM ([2]; 20 mg/kg i.p. + taurocholate): 7.8 U/ml
INHIBITION OF AMYLASE INCREASE ([2]; 20 mg/kg i.p. + taurocholate): 123.5%
INHIBITION OF WEIGHT INCREASE ([2]; 20 mg/kg i.p. + taurocholate): 107.7%
ED50 ([2]; read-out: ED50, inhibition of amylase increase): 7.3 mg/kg
ED50 ([2]; read-out: ED50, inhibition of weight increase): 6.9 mg/kg
increase in the food consumption compared with the controls ([3]; 0.625 mg/kg daily): about 20%
Food consumption ([3]; 0.625 mg/kg os, 1st week): 187.1 ± 6.3 g/week
Food consumption ([3]; 0.625 mg/kg os, 2nd week): 220 ± 3.9 g/week
Food consumption ([3]; 0.625 mg/kg os, 3rd week): 242.5 ± 3.3 g/week
Food consumption ([3]; 1.25 mg/kg os, 1st week): 205 ± 4.6 g/week
Food consumption ([3]; 1.25 mg/kg os, 2nd week): 217.5 ± 3.8 g/week
Food consumption ([3]; 1.25 mg/kg os, 3rd week): 253.5 ± 2.4 g/week
Food consumption ([3]; 2.5 mg/kg os, 1st week): 209.2 ± 3.3 g/week
Food consumption ([3]; 2.5 mg/kg os, 2nd week): 222.2 ± 2.6 g/week
Food consumption ([3]; 2.5 mg/kg os, 3rd week): 270.7 ± 4.5 g/week
increase in the food consumption compared with the controls ([3]; other doses tested (1.25, 2.5 mg/kg)): about 30%
body weight ([4]; 0.625 mg/kg os, 1st week): 216.9 ± 3.8 g
body weight ([4]; 0.625 mg/kg os, 2nd week): 267.5 ± 3.9 g
body weight ([4]; 0.625 mg/kg os, 3rd week): 324 ± 3.6 g
body weight ([4]; 0.625 mg/kg os, time 0): 169.3 ± 1.9 g
body weight ([4]; 1.25 mg/kg os, 1st week): 242.7 ± 4.9 g
body weight ([4]; 1.25 mg/kg os, 2nd week): 318.3 ± 4.4 g
body weight ([4]; 1.25 mg/kg os, 3rd week): 371 ± 5.6 g
body weight ([4]; 1.25 mg/kg os, time 0): 168.3 ± 1.1 g
body weight ([4]; 2.5 mg/kg os, 1st week): 241.6 ± 3.7 g
body weight ([4]; 2.5 mg/kg os, 2nd week): 325.2 ± 5.5 g
body weight ([4]; 2.5 mg/kg os, 3rd week): 374.9 ± 5.1 g
body weight ([4]; 2.5 mg/kg os, time 0): 165.8 ± 1.3 g
weight increase compared with control animals ([4]; all treated groups, from the first week, in words): significantly higher weight increase than the control animals
PANCREATIC DNA (normal pancreatic cells; 4 mg/kg i.p. three times a day): 0.78 ± 0.03 mg
WEIGHT OF THE PANCREAS (normal pancreatic cells; 4 mg/kg i.p. three times a day): 351.2 ± 17.2 mg
PANCREATIC DNA (normal pancreatic cells; [8]): 0.83 ± 0.06 mg
WEIGHT OF THE PANCREAS (normal pancreatic cells; [8]): 370.2 ± 12.7 mg
effect on normal pancreatic cells (normal pancreatic cells; in words): atagonises both these actions of CCK-8 to a highly significant extent
TUMORAL DNA ([5]; 4 mg/kg i.p. three times a day): 0.42
WEIGHT OF THE PANCREATIC CARCINOMA ([5]; 4 mg/kg i.p. three times a day): 105.0 ± 4.1 mg
TUMORAL DNA [5, 8]: 0.44
WEIGHT OF THE PANCREATIC CARCINOMA [5, 8]: 108.8 ± 5.4 mg
effect on growth of a pancreatic adenocarcinoma ([5]; in words): atagonises both these actions of CCK-8 to a highly significant extent
tissue damage [6]: does not moreover give rise to tissue damage
haemolysis [7]: without causing haemolysis
